Test results taken from US20080206374A1 (priority 2003, published 2008).
Counter-ions that a name gives are not always drawn. Marks after values point to notes of the source that are not given here.

Experiments:
[1] = influence upon the lethal effect of MTX; assay type: in vivo, mice; conditions: MTX 22 mg/kg i.p.; composition 0.2 ml i.p. daily for eight days
Procedure: 2) The mice were divided into two groups and inoculated the tumor cells according to the method above. […] On the 4th day of the administration, the mice were inoculated tumor cell and intraperitoneally injected 22 mg/kg aqueous solution of MTX after 6 hours of inoculation. Within 10 days after MTX injection, the death rate of animals was observed and the survival rates of the two groups of animals were compared.

[2] = test system: experimental acute myocardial ischemia of dogs; assay: experimental acute myocardial ischemia and myocardial infarction of anesthetized dogs (coronary artery ligature); assay type: in vivo
Procedure: The experimental medicaments were prepared with physiological saline to the same volume (50 ml), and injected through femoral vein at a speed of 5 ml/min with the computer minim syringe pump (Type AJ-5803, Shanghai).
The animals were anaesthetized with pentobarbital sodium (30 mg/kg, i.v), and connected with an electric respirator after tracheal intubation. The chest was opened in the position of the 4th left rib to expose the heart. The pericardium was cut out to make a pericardial bed. The laevorotatory branch of coronary artery was separated and a probe of an electromagnetic flowmeter (Type MF-1100) was placed in to measure the blood flow of coronary artery. The middle section of anterior descending branch of coronary artery was separated and a thread was put through for ligature to make a model of experimental acute myocardium myocardial ischemia. A multipoint fixed epicardium electrode was sewed up and connected with a multirunning physiological recorder (Type RM-6100, Japan Photoelectricity) to display and record the electrocardiogram of epicardium^<1>. The coronary artery was ligated for 15 minutes and recorded as a control value before medicaments administration. The experimental medicaments or physiological saline was injected through the femoral vein. At […] 15, 30, 45, 60, 90, 120, and 180 minutes after medicament administration, 30 measuring points of the epicardium electrocardiogram were recorded. The rising S-T section that is more than 2 mv was taken as a judgment standard to calculate the degree of myocardial ischemia (total mv number of the rising S-T section Σ-ST) and the range of myocardial ischemia (total point number of the rising S-T section N-ST). After intubation through the […] into the coronary vein sinus, the blood oxygen content of coronary vein was measured by a blood oxygen instrument (Type AVL912, Swiss) while the blood samples were taken before ischemia, ischemia 15 min (before administration), at 15, 30, 60, 120, and 180 minutes after medicament administration. Then the animal was intubated into the carotid to measure the blood oxygen content of artery. It was calculated together with the blood flow of coronary artery to measure the myocardial oxygen consumption:
Myocardial oxygen consumption=(blood oxygen content of artery−blood oxygen content of coronary vein)×blood flow of coronary artery/100.
The blood samples were taken at the above-mentioned time points, and then serum creatine phosphate kinase (CK) and lactic dehydrogenase (LDH) were measured with a full-automatic biochemical analyzer (Type RA-1000, USA). And ET, TXB2 and 6-Keto-PGF1 were measured with the Radioimmuno-method and with a full-automatic γ counter (Type FT-630G, Beijing).
When recording was finished at 180 minutes after medicament administration, the heart was taken out immediately, washed with physiological saline and weighed as a whole. Under the ligature line of the heart, the ventricle was cut evenly into 5 pieces parallel to the coronary sulcus. Then the pieces were placed in the N-BT solution and stained at the room temperature for 15 minutes. The infarcted area (N-BT non-stained area) and the non-infarcted area (N-BT stained area) on the lateral sides of each piece of myocardium were measured with a Multimedia Color Pathological Image Analyzing System (Type MPIAS-500, Beijing) The area of each piece of myocardium, the total area of ventricle and the area of the infarcted section were calculated. The percentage of the infarcted area over the ventricle and that over total heart were calculated.
The experimental result was processed statistically and its significance was tested with t-Test.

[3] = test system: normally anaesthetized dogs; assay: cardiac hemodynamics and cardiac oxygen consumption of dogs; assay type: in vivo
Procedure: The experimental medicaments were prepared to the same volume (50 ml) with physiological saline, and injected through femoral vein at a speed of 5 ml/min by the computer minim syringe pump (Type AJ-5803, Shanghai).
The animals were anaesthetized intravenously with pentobarbital sodium (30 mg/kg, i.v), and connected with an electric respirator after tracheal intubation. The chests were opened in the position of the 4th left rib to expose the heart. The pericardium was cut to make a pericardial bed. The laevorotatory branch of coronary artery and the root of aorta were separated and a probe of an electromagnetic flowmeter (Type MF-1100) was placed in to measure the blood flow of coronary artery and cardiac output. The tip of left ventricle was intubated and connected with a pressure energy transducer (MPU-0.5A). The internal pressure of left ventricle was measured with a carrier amplifier (AG-601G), and the maximal ascending rate (dp/dtmax) of the internal pressure of left ventricle was measured with a differentiator (ED-601G). The animals were intubated through the external jugular vein into the coronary vein sinus and also intubated through the carotid. The blood oxygen contents of coronary vein sinus and artery were measured using a blood oxygen instrument (Type AVL912, Swiss) to calculate the myocardial oxygen consumption. Then the femoral artery was intubated to measure the blood pressure of artery. And then with the Standard Limb Lead II of electrocardiogram, the heart rate and the related parameters of electrocardiogram were calculated. With the formula, other indexes of hemodynamics were calculated: cardiac stroke output, oxygen consumption index, cardiac index, resistance of coronary artery, total peripheral resistance and oxygen utility, etc. All the above-mentioned indexes were recorded by a multirunning physiological recorder (Type RM-6000, Japan Photoelectricity) synchronously.
After the operation and the observed indexes being stable, the values before medicament were recorded, and the experimental medicaments were then administered. The values were recorded at 5 minutes of the middle of the process of administration, immediately after, and 1, 3, 5, 10, 15, 30, and 60 minutes after administered medicaments. All the measured indexes and derived parameters were processed statistically. The self-comparisons of the actual measurement values within different time periods after and before administered medicaments were made. Using the t-Test, the changed rate percentages were compared to show the significance between the groups.

[4] = test system: myocardial ischemia reperfusion injury of rats; assay: myocardial infarction caused by ischemia reperfusion; assay type: in vivo; conditions: 1.0 mg/kg
Procedure: The medicaments were diluted to desired concentration with physiological saline. The volume of administered medicament was 4 ml/kg. And the medicaments were given through the left femoral vein.
The animals were anaesthetized by pentobarbital sodium (45 mg/kg) through abdominal cavity and fixed in backstroke position. […] The tracheas were cut open, the trachea cannulas were inserted, and tracheas were connected with a respirometer (Type SC-3, Shanghai) for artificial respiration (32/min, with a respiration ratio of 1:3). The 3rd-5th ribs were cut off after opening the chest, and the pericardiums were opened to expose the heart. A suture (suture No. 0) was put through the root of left anterior descending branch of coronary artery for ligature. After the suture being put through stably for 10 minutes, a plastic concave pipe was placed parallel with the blood vessel, which was then ligated (eliminating the ones without changes of ST and T-wave). The experimental medicaments were administered. After 40 minutes, the ligature suture was cut off along the groove to trigger the reperfusion of the anterior descending branch. The chest was then seamed and independent respiration was recovered.
The bloode samples were taken from the ventral aorta to measure the serum SOD and MDA contents after 2 hours of the ligature. The heart was sliced into 5 pieces under heart ligature and was stained by N-BT. Using a Multimedia Pathological Color Image Analyzing System (Type MPIAS-500, Beijing), the areas of the normal myocardiums and the myocardial infraction were calculated. The degree of myocardial infarction was observed. And the experimental results were statistically analyzed (t-Test).

[5] = test system: acute lung injury caused by the lipopolysaccharide; assay: LPS acute lung injury (ALI) model; assay type: in vivo, Wistar rats
Procedure: And each of the modeling group, the LPS+DEX Group and LPS+SQ Group was again divided into 3 time phasing groups, that is, a one-hour group, a two-hour group, and a four-hour group. There are 10 groups in total, 6 […] per group in this experiment.
The 18 rats of the LPS+DEX Group were injected abdominally with 50 mg/kg Dexamethasone 2 hours before modeling. The 18 rats of the LPS+NS Group were injected with physiological saline 2 hours before modeling. Except for the normal Control group, all the three above-mentioned groups were injected with LPS (4 mg/kg) in the caudal vein.
After all the animals being anaesthetized with chloral hydrate through abdominal injection at the determined time phasing point, 2 ml blood was sampled from the carotid, and centrifuged at 800 gr/min for 8 minutes. The supernatant was extracted and placed at −20° C. in a refrigerator for future usage. The chest was opened and the lower lobes of the right lung were sampled They were placed in the EP tubes treated with DEPC solution and immediately put at −70° C. in a refrigerator for the total RNA extraction. The upper lobes of the right lung were sampled and dipped in 10% formaldehyde solution to fix. The left lungs were taken for the ratio of wet/dry weight measurement.
4. At the corresponding timing point, the animal lung tissues were taken and observed with human eyes and under the microscope using HE Staining Method. The ratio of tissues wetdry weight was also measured.

[6] = Dose/kg 0.5 mg, femoral vein, 180 minutes, N-BT staining
[7] = Herbesser Injection, femoral vein
[8] = serum after 2 hours of the ligature
[9] = LPS 4 mg/kg, DEX 50 mg/kg 2 hours before, SQ 2 ml daily 1 week before

## CN(Cc1cnc2nc(N)nc(N)c2n1)c1ccc(C(=O)N[C@@H](CCC(=O)O)C(=O)O)cc1 [MTX, Methotrexate]
[1]
  Number of Dead Animal after administered MTX, 4th day: 1
  Number of Dead Animal after administered MTX, 5th day: 7
  Number of Dead Animal after administered MTX, 6th day: 3
  Number of Dead Animal after administered MTX, 7th day: 6
  Survival Number after 10 days: 4
  Survival Rate % after 10 days: 19.04%

## COc1ccc([C@@H]2Sc3ccccc3N(CCN(C)C)C(=O)[C@@H]2OC(C)=O)cc1 [Herbesser, Diltiazem Hydrochloride]
[2]; [6]
  Infarcted Area: 281.30 ± 159.9*** mm^2
  Infarcted Area/heart: 2.27 ± 0.73
  Infarcted Area/ventricle: 7.44 ± 2.61
[2]; Herbesser, composition 2.4 g crude drug/kg, P<0.05 vs physiological saline
  increasing activity of serum CK and LDH caused by myocardial ischemia and infarction (in words): significantly inhibited
[2]; after ligature of the coronary artery
  blood flow of coronary artery (in words): evident effect of increasing blood flow of coronary artery
[2]; dog, in vivo
  ET activity in plasma caused by myocardial ischemia and infarction (in words): obvious inhibiting effect on the ET activity
[2]; no statistical meaning
  blood oxygen content of vein sinus (in words): effect trend of increasing blood oxygen content of vein sinus
[3]; Herbesser Injection
  blood flow and resistance of coronary artery (in words): markedly increased the blood flow and the resistance of coronary artery
[3]; [7]
  arterial blood pressure (in words): obvious effect of reducing blood pressure
  heart rate (in words): slowing down heart rate
[4]; left femoral vein
  Infarcted Area/heart: 16.6 ± 2.6
  Infarcted Area/ventricle %: 21.6 ± 4.3 %
  The area of myocardial infraction: 61.72 ± 9.68** mm^2
  Weight of Infarcted Area: 0.154 ± 0.027 g
[4]; [8]
  MDA content of blood serum: 2.35 ± 0.07 µmol/L
  SOD content of blood serum: 660.9 ± 159.7 ng/mL

## CCCCC[C@H](O)/C=C/[C@@H]1[C@@H](CC(=O)CCCCC(=O)O)[C@@H](O)C[C@H]1O [Composition 6-Keto-PGF1, 6-keto-prostaglandin F1α]
[2]; 15 minutes after given
  myocardial oxygen consumption (in words): obviously reduced
[3]; dog, in vivo
  cardiac stroke output (in words): markedly increased the cardiac stroke output
  resistance of outer periphery (in words): reduced the resistance of outer periphery

## C[C@@H]1C[C@H]2[C@@H]3CCC4=CC(=O)C=C[C@]4(C)[C@@]3(F)[C@@H](O)C[C@]2(C)[C@@]1(O)C(=O)CO [LPS + DEX, Dexamethasone]
[5]; LPS 4 mg/kg caudal vein, DEX 50 mg/kg abdominally 2 hours before, SQ 2 ml abdominally daily 1 week before
  Pathological Classification of lung injury: cases Light, 1-hour: 6
[5]; [9]
  Lung W/D Ratio, 1 h: 4.82 ± 0.23*Δ
  Lung W/D Ratio, 2 h: 4.59 ± 0.19*Δ#
  Lung W/D Ratio, 4 h: 4.57 ± 0.10*Δ#
  Pathological Classification of lung injury: cases Light, 2-hour: 4
  Pathological Classification of lung injury: cases Light, 4-hour: 6
  Pathological Classification of lung injury: cases Middle, 1-hour: 0
  Pathological Classification of lung injury: cases Middle, 2-hour: 2
  Pathological Classification of lung injury: cases Middle, 4-hour: 0
  Pathological Classification of lung injury: cases Severe, 1-hour: 0
  Pathological Classification of lung injury: cases Severe, 2-hour: 0
  Pathological Classification of lung injury: cases Severe, 4-hour: 0
[5]; compared with LPS+NS Group
  symptoms (tachypnea, lips cyanosis, mental wilting) after LPS (in words): relatively mild
[5]; same time phasing points, in comparison to Group LPS+NS
  general observation of lung tissues (in words): mitigated to different extent
